Test results taken from ChEMBL document CHEMBL3600362, “Synthesis of CNS active thyrotropin-releasing hormone (TRH)-like peptides: Biological evaluation and effect on cognitive impairment induced by cerebral ischemia in mice” (Bioorg Med Chem, 2015).

Assays:
[1] = target: T1, Thyrotropin-releasing hormone receptor (Mus musculus, UniProt P21761); assay: Agonist activity at mouse TRH-R1 expressed in HEK293 cells assessed as induction of changes in intracellular Ca2+ level by FLIPR method; assay type: functional, cell-based
T1 sequence (P21761 whole entry): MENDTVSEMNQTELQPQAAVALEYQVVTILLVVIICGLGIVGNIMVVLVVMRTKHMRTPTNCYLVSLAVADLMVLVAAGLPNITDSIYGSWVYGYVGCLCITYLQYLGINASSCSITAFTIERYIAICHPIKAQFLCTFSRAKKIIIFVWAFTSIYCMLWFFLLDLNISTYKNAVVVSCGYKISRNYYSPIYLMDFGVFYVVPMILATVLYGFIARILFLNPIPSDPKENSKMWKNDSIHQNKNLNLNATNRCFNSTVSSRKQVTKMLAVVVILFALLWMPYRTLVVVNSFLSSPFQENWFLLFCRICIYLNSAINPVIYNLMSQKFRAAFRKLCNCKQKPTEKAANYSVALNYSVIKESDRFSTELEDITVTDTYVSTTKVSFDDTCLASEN

[2] = target: T1, Thyrotropin-releasing hormone receptor; assay: Displacement of [3H]-1-MeHis-TRH from mouse TRH-R1 expressed in HEK293 cells incubated up to 4 hrs by scintillation counting method; assay type: cell-based
[3] = target: T2, Thyrotropin-releasing hormone receptor 2 (Mus musculus, UniProt Q9ERT1); assay: Displacement of [3H]-1-MeHis-TRH from mouse TRH-R2 expressed in HEK293 cells incubated up to 4 hrs by scintillation counting method; assay type: cell-based
T2 sequence (Q9ERT1 whole entry): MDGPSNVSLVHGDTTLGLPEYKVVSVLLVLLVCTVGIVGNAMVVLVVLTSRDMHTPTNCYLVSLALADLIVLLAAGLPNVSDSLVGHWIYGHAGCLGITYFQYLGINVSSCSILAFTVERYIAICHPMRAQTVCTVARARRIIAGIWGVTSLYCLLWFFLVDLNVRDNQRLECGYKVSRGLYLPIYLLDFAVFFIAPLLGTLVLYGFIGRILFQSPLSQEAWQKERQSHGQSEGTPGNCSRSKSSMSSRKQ

Mus musculus = assay: Reduction in pentobarbital-induced sleeping time in Swiss mouse at 10 umol/kg, iv; assay type: functional
HEK293 = assay: Selectivity index, ratio of EC50 for agonist activity at mouse TRH-R1 expressed in HEK293 cells to EC50 for agonist activity at mouse TRH-R2 expressed in HEK293 cells; assay type: cell-based
[4] = target: T2, Thyrotropin-releasing hormone receptor 2; assay: Agonist activity at mouse TRH-R2 expressed in HEK293 cells assessed as induction of changes in intracellular Ca2+ level by FLIPR method; assay type: functional, cell-based
TRH-degrading ectoenzyme = target: T3, TRH-degrading ectoenzyme (Mus musculus, UniProt Q8K093); assay: Stability assessed as mouse recombinant TRH-degrading ectoenzyme-mediated compound degradation at 1 mM measured within 18 hrs by HPLC method; assay type: ADME; conditions: read-out: Drug degradation
T3 sequence (Q8K093 whole entry): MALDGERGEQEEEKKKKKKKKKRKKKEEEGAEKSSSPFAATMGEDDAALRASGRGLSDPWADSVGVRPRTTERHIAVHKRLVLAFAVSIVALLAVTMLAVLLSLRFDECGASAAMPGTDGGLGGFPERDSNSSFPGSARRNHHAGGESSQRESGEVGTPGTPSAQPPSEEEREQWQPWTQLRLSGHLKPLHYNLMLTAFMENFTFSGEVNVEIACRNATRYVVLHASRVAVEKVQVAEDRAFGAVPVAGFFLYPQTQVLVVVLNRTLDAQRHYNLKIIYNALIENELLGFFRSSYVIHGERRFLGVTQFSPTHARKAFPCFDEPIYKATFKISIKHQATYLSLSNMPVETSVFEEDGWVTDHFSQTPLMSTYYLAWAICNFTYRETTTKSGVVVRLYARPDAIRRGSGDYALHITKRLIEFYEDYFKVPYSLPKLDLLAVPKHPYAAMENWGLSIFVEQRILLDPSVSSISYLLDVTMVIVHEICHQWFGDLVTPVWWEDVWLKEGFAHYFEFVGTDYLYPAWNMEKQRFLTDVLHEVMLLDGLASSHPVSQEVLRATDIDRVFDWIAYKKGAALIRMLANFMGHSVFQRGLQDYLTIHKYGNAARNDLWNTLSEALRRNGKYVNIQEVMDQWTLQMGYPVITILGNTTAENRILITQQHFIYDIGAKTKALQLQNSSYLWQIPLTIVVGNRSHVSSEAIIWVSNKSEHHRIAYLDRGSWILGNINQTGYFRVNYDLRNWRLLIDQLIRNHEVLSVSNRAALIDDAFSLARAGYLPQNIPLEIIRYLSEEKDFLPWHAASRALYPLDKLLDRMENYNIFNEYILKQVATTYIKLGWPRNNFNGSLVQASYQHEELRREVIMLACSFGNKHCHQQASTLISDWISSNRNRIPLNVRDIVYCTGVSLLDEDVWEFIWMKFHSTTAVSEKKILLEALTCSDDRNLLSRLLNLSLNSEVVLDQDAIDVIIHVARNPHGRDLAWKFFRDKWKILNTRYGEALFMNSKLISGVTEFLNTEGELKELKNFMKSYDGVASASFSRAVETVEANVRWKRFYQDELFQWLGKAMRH

[5] = Half life in human plasma; assay type: ADME, cell-free

CC(C)c1nc(C[C@H](NC(=O)C2CCCCN2)C(=O)N2CCC[C@H]2C(N)=O)c[nH]1 (single isomer, unassigned)
EC50 [1]: 1 µM
IC50 [2]: > 50 µM
IC50 [3]: > 50 µM
inhibition in vivo at 10 µmol/kg (Mus musculus): 42.7%
Ratio EC50 (HEK293): 1.3
EC50 [4]: 0.77 µM

CCCc1nc(C[C@H](NC(=O)c2cnc(C)cn2)C(=O)N2CCC[C@H]2C(N)=O)c[nH]1
EC50 [1]: 0.017 µM
IC50 [2]: > 50 µM
IC50 [3]: > 50 µM
inhibition in vivo at 10 µmol/kg (Mus musculus): 4.1%
Ratio EC50 (HEK293): 1.1
EC50 [4]: 0.015 µM

Cc1cnc(C(=O)N[C@@H](Cc2nc(Br)[nH]c2Br)C(=O)N2CCC[C@H]2C(N)=O)cn1
EC50 [1]: 0.077 µM
IC50 [2]: > 50 µM
IC50 [3]: > 50 µM
inhibition in vivo at 10 µmol/kg (Mus musculus): 29%
Ratio EC50 (HEK293): 0.77
EC50 [4]: 0.1 µM

NC(=O)[C@@H]1CCCN1C(=O)[C@H](Cc1nc(I)n(Cc2ccccc2)c1I)NC(=O)c1cnccn1
EC50 [1]: 0.98 µM
IC50 [2]: > 50 µM
IC50 [3]: > 50 µM
inhibition in vivo at 10 µmol/kg (Mus musculus): 74.8%
Ratio EC50 (HEK293): 32.6
EC50 [4]: 0.03 µM

NC(=O)[C@@H]1CCCN1C(=O)[C@H](Cc1cnc[nH]1)NC(=O)[C@@H]1CCC(=O)N1 [PROTIRELIN]
IC50 [2]: 0.0026 µM
metabolised at 18 h, 1000 µM (TRH-degrading ectoenzyme): 80%
IC50 [3]: 0.007 µM
half-life [5]: 2 min
EC50 [4]: 0.00052 µM

NC(=O)[C@@H]1CCCN1C(=O)[C@H](Cc1nc[nH]c1Br)NC(=O)c1cnccn1
EC50 [1]: 3.98 µM
IC50 [2]: > 50 µM
IC50 [3]: > 50 µM
inhibition in vivo at 10 µmol/kg (Mus musculus): 32.8%
Ratio EC50 (HEK293): 82.9
EC50 [4]: 0.048 µM

NC(=O)[C@@H]1CCCN1C(=O)[C@H](Cc1nc[nH]c1Br)NC(=O)c1nccnc1N
EC50 [1]: 0.287 µM
IC50 [2]: > 50 µM
IC50 [3]: > 50 µM
inhibition in vivo at 10 µmol/kg (Mus musculus): 29.5%
Ratio EC50 (HEK293): 47.8
EC50 [4]: 0.006 µM

NC(=O)[C@@H]1CCCN1C(=O)[C@H](Cc1nc(Br)[nH]c1Br)NC(=O)c1nccnc1N
EC50 [1]: 1.41 µM
IC50 [2]: > 50 µM
IC50 [3]: > 50 µM
inhibition in vivo at 10 µmol/kg (Mus musculus): 12.2%
Ratio EC50 (HEK293): 4.8
EC50 [4]: 0.29 µM

NC(=O)[C@@H]1CCCN1C(=O)[C@H](Cc1nc(I)[nH]c1I)NC(=O)c1cnccn1
EC50 [1]: 11.3 µM
IC50 [2]: > 50 µM
IC50 [3]: > 50 µM
inhibition in vivo at 10 µmol/kg (Mus musculus): 1.5%
Ratio EC50 (HEK293): 36.3
EC50 [4]: 0.31 µM

CCCc1nc(C[C@H](NC(=O)c2cnccn2)C(=O)N2CCC[C@H]2C(N)=O)c[nH]1
EC50 [1]: 0.15 µM
IC50 [2]: > 50 µM
IC50 [3]: > 50 µM
inhibition in vivo at 10 µmol/kg (Mus musculus): 63.6%
Ratio EC50 (HEK293): 2.5
EC50 [4]: 0.06 µM

Cc1cnc(C(=O)N[C@@H](Cc2nc[nH]c2Br)C(=O)N2CCC[C@H]2C(N)=O)cn1
EC50 [1]: 0.498 µM
IC50 [2]: > 50 µM
IC50 [3]: > 50 µM
inhibition in vivo at 10 µmol/kg (Mus musculus): 23.2%
Ratio EC50 (HEK293): 12.4
EC50 [4]: 0.04 µM

Cc1cnc(C(=O)N[C@@H](Cc2nc(I)n(Cc3ccccc3)c2I)C(=O)N2CCC[C@H]2C(N)=O)cn1
EC50 [1]: 0.74 µM
IC50 [2]: > 50 µM
IC50 [3]: > 50 µM
inhibition in vivo at 10 µmol/kg (Mus musculus): 50.1%
Ratio EC50 (HEK293): 14.8
EC50 [4]: 0.05 µM

Cn1cnc(C[C@H](NC(=O)c2cnccn2)C(=O)N2CCC[C@H]2C(N)=O)c1Br
EC50 [1]: 0.34 µM
IC50 [2]: > 50 µM
IC50 [3]: > 50 µM
inhibition in vivo at 10 µmol/kg (Mus musculus): 32.3%
Ratio EC50 (HEK293): 11.3
EC50 [4]: 0.03 µM

CCn1c(I)nc(C[C@H](NC(=O)c2cnccn2)C(=O)N2CCC[C@H]2C(N)=O)c1I
EC50 [1]: 7.21 µM
IC50 [2]: > 50 µM
IC50 [3]: > 50 µM
inhibition in vivo at 10 µmol/kg (Mus musculus): 1.8%
Ratio EC50 (HEK293): 7.5
EC50 [4]: 0.96 µM

NC(=O)[C@@H]1CCCN1C(=O)[C@H](Cc1c[nH]cn1)NC(=O)[C@@H]1CCC(=O)N1 [PROTIRELIN]
EC50 ([1]; hek293): 0.001 µM
inhibition in vivo at 10 µmol/kg (Mus musculus): 51.1%
Ratio EC50 (HEK293): 1.9

CCCc1nc(C[C@H](NC(=O)c2nccnc2N)C(=O)N2CCC[C@H]2C(N)=O)c[nH]1
EC50 [1]: 1.56 µM
IC50 [2]: > 50 µM
IC50 [3]: > 50 µM
inhibition in vivo at 10 µmol/kg (Mus musculus): 52.2%
Ratio EC50 (HEK293): 10.5
EC50 [4]: 0.12 µM

NC(=O)[C@@H]1CCCN1C(=O)[C@H](Cc1nc[nH]c1Cl)NC(=O)c1cnccn1
EC50 [1]: 19.3 µM
IC50 [2]: > 50 µM
IC50 [3]: > 50 µM
inhibition in vivo at 10 µmol/kg (Mus musculus): 29.8%
Ratio EC50 (HEK293): 36.5
EC50 [4]: 0.53 µM

CCCc1nc(C[C@H](NC(=O)C2CCCCN2)C(=O)N2CCC[C@H]2C(N)=O)c[nH]1 (single isomer, unassigned)
EC50 [1]: 0.94 µM
IC50 [2]: > 50 µM
IC50 [3]: > 50 µM
inhibition in vivo at 10 µmol/kg (Mus musculus): 67.4%
Ratio EC50 (HEK293): 235
EC50 [4]: 0.004 µM
